Measurements taken from patent publication US11376277B2, “Synergistic medicinal compositions for treating dysfunctional D-serine signaling” (CELAGENEX RESEARCH (INDIA) PVT. LTD., priority 2020, dated 2022).
Where two headings read alike, the source gives them in different places.

Columns and labels:
human SR = target: T1, human SR (Homo sapiens, UniProt Q9GZT4); conditions: cited from earlier work
T1 sequence (Q9GZT4 1-340): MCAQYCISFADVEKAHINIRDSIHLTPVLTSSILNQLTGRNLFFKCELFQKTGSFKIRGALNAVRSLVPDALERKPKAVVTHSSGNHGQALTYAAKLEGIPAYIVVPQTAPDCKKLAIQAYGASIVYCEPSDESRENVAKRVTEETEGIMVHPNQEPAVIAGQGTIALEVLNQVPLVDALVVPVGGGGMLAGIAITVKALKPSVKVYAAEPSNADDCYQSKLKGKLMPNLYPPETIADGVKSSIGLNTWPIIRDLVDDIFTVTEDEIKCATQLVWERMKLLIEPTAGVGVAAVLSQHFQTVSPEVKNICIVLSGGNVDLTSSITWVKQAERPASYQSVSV

D-serine [1] = assay: Pharmacokinetics profile of D-serine in rat model, blood plasma; conditions: for ln(C) / Conc / AUC: D-serine in rat plasma; for Conc: doses per Table 1
Experimental: (§1) To assess and compare the pharmacokinetics profile of D-serine in rat model.
(§2) Six groups were divided into 4 sets of 3 rats each/subset for bleeding and organ (brain) collection—Total 72 rats
Plasma was separated using refrigerated centrifuge & stored in −80° C. before analysis. Blood was collected at time point 0, 2, 6 and 10 hrs at least from 3 rats/group/time point.
(§3) Supernatant was filtered with 0.2 micron amicon syringe filter (Millipore, Hessen, Germany), then directly transferred into auto sampler vials
(§4) An Accela™ ultra-high performance liquid chromatography (UHPLC) system (Thermo Fisher, Waltham, USA), coupled online via heated electrospray ionization source (HESI) with a Q-Exactive-Orbitrap mass spectrometer (Thermo Fisher), was employed for global metabolomics profiling with 1 μL sample injection volume. The metabolites were profiled using a C18 Hypersil Gold column (1.9 μm, 2.1×150 mm, Thermo).
(§5) The temperature of column oven was set at 35° C. and the sample manager was maintained at 4° C. The eluents acetonitrile and water containing 0.1% formic acid were employed in the electrospray ionization-positive (ESI+) mode.
(§6) The area under the plasma concentration time curve (AUC) value was calculated to the last quantifiable sample (AUClast) by using the log-linear trapezoidal rule.

D-serine [2] = assay: Pharmacokinetics profile of D-serine in rat model, brain tissue sample; conditions: for ln(C) / Conc / AUC: D-serine in rat brain tissue; for Conc: doses per Table 1
Experimental: as §1, §2
Organ (Brain) collection: Rats were sacrificed each time point (3 rats/group/time point) by decapitation at 0, 2, 6 or 10 hr post dose. Brain was removed and cerebellum dissected on ice. Tissue samples were frozen on dry ice and stored at −80° C. until analysis.
as §3, §4, §5, §6

[3] = D-serine, rat brain tissue, non-compartmental analysis
[4] = D-serine, rat plasma, non-compartmental analysis

[Ca+2] [Ca′]
activity of the enzyme relative to purified human SR without divalent cation supplementation (human SR; @1 mM): 134%

N[C@@H](COS(=O)(=O)O)C(=O)O [L-Serine 0-sulfate, L-Serine O-sulfate, reference compound]
D-Serine over control (D-serine [1]; rat, treated with serine racemase inhibitor, 1.86 mg/kg): substantially reduced

[Mg+2] [Mg^2+]
activity of the enzyme relative to purified human SR without divalent cation supplementation (human SR; @10 μM): 112%

[Mn+2] [Mn^2+]
activity of the enzyme relative to purified human SR without divalent cation supplementation (human SR; @10 μM): 153%

magnesium 2-acetamidoethanesulfonate dihydrate [Test I]
ln(C) (D-serine [2]; Time 0 (pre-dose)): −0.8701 | Conc (D-serine [2]; Time 0 (pre-dose)): 0.4189 | ln(C) (D-serine [2]; Time 2 hr): −0.981 | Conc (D-serine [2]; Time 2 hr): 0.3749 | ln(C) (D-serine [2]; Time 6 hr): −1.151 | Conc (D-serine [2]; Time 6 hr): 0.3163 | ln(C) (D-serine [2]; Time 10 hr): −1.332 | Conc (D-serine [2]; Time 10 hr): 0.2638 | AUC (D-serine [2]; cumulative to Time 2 hr): 0.7938 | AUC (D-serine [2]; cumulative to Time 6 hr): 2.176 | AUC 0-inf_obs (D-serine [2]; [3]): 7342 ng·h/mL | AUMC 0-inf_obs (D-serine [2]; [3]): 211.9 μg/ml*h^2 | Cl/F_obs (D-serine [2]; [3]): 3.872 (mg)/(μg/ml)/h | Cmax (D-serine [2]; [3]): 418.9 ng/mL | MRT 0-inf_obs (D-serine [2]; [3]): 22.68 h | Tlag (D-serine [2]; [3]): 0 h | Tmax (D-serine [2]; [3]): 0 h | Vz/F_obs (D-serine [2]; [3]): 88.12 (mg)/(μg/ml) | t1/2 (D-serine [2]; [3]): 15.78 h | AUC 0-t (D-serine [2]; D-serine, rat brain tissue, non-compartmental analysis, 0-10 hr): 2137 ng·h/mL | Lambda_z (D-serine [2]; D-serine, rat brain tissue, non-compartmental analysis, extravascular input): 0.04393 L/h | AUC values of D-serine (D-serine [2]; rat brain tissue samples, G4 36.17 mg/kg, G5 31.01 mg/kg): increased | ln(C) (D-serine [1]; Time 0 (pre-dose)): −0.3877 | Conc (D-serine [1]; Time 0 (pre-dose)): 0.6786 | ln(C) (D-serine [1]; Time 2 hr): −0.4986 | Conc (D-serine [1]; Time 2 hr): 0.6074 | ln(C) (D-serine [1]; Time 6 hr): −0.6686 | Conc (D-serine [1]; Time 6 hr): 0.5124 | ln(C) (D-serine [1]; Time 10 hr): −0.85 | Conc (D-serine [1]; Time 10 hr): 0.4274 | AUC (D-serine [1]; cumulative to Time 2 hr): 1.286 | AUC (D-serine [1]; cumulative to Time 6 hr): 3.5256 | AUC 0-inf_obs (D-serine [1]; [4]): 11130 ng·h/mL | AUMC 0-inf_obs (D-serine [1]; [4]): 343.2 μg/ml*h^2 | Cl/F_obs (D-serine [1]; [4]): 2.39 (mg)/(μg/ml)/h | Cmax (D-serine [1]; [4]): 678.6 ng/mL | MRT 0-inf_obs (D-serine [1]; [4]): 22.68 h | Tlag (D-serine [1]; [4]): 0 h | Tmax (D-serine [1]; [4]): 0 h | Vz/F_obs (D-serine [1]; [4]): 54.4 (mg)/(μg/ml) | t1/2 (D-serine [1]; [4]): 15.78 h | AUC 0-t (D-serine [1]; D-serine, rat plasma, non-compartmental analysis, 0-10 hr): 3405.2 ng·h/mL | Lambda_z (D-serine [1]; D-serine, rat plasma, non-compartmental analysis, extravascular input): 0.04393 L/h | AUC values of D-serine (D-serine [1]; rat plasma, G4 36.17 mg/kg, G5 31.01 mg/kg): increased
